Assays:
JAK1 = JAK1 (Homo sapiens (Human), UniProt P23458); test: Eurofins IC50Profiler radiometric kinase assay, JAK1; format: biochemical; conditions: 9 semilog concentrations
Description: A proportion of the compounds of the present invention are subjected to kinase profile screening (KinaseProfiler™)) and enzymatic inhibitory activity (IC50Profiler™)) assay by entrusting Eurofins company (http://www.eurofins.com). Besides the kinases in the JAK family, the kinases that have been screened for their activity also include most Group 3F and Group 4 kinases (ITK, BLK, TBK1, VEGFRs, ERBBs, etc.), and blood system related kinases (Zhang J. et al. 2009, Nat. Rev. Cancer., 9: 28-39). The concentration of the test compound for kinase profile screening is 1 μM, and a gradient of 9 semilog concentration gradients are used to determine IC50. Detection is carried out according to standard procedure of Eurofins Company. Briefly, according to the requirements of different kinase reactions, 0.2 μL test compound (50 μM, dissolved in dimethyl sulfoxide (DMSO)) is added to reaction buffer containing specific kinase (the buffer system containing 20 mM MOPS, 1 mM EDTA, 0.01% Brij-35, 5% Glycerol, 0.1% β-mercaptoethanol, 1 mg/mL BSA, or 50 mM TRIS, 0.1 mM EGTA, 0.1 mM Na3VO4, 0.1% β-mercaptoethanol, 1 mg/mL BSA, based on the type of kinase used). Subsequently, a kinase specific substrate at a final concentration of 50 μM (specific substrate used for specific kinase), 10 mM Mg Acetate and isotope-labeled γ-^33P ATP (radio-activity of about 500 cpm/pmol) are sequentially added to a total volume of 10 μL for the reaction system. After incubation at room temperature for 40 min, the reaction is terminated by adding 3% phosphoric acid solution. The mixture is then transferred to a filter-type low temperature spray dryer (P30 filtermat), and washed by 75 mM phosphoric acid solution for 3 times and by methanol once. After drying, radio-activity is detected. For specific procedure, see the standard procedure provided by Eurofins Company: http://www.eurofins.com/media/9724077/kinaseprofiler_assay_protocol_guide_eurofins_v64.pdf).

EPO/JAK2/STAT5a (UT-7) = test: Intracellular activity assay, EPO induced STAT5 phosphorylation in UT-7/EPO; format: cell-based; conditions: Homo sapiens, inhibition of STAT5 phosphorylation, EPO 10 ng/mL
Description: In this experiment, western blot (WB) and flow cytometry are used to evaluate the intracellular activities of the test compounds by comparing the relative levels of the signals of phosphorylated and non-phosphorylated STATs in 5 cell models, including U937, THP-1, CTLL-2, UT-7/EPO and activated human periphery blood cell (hPBC). The primary antibody and secondary antibody used in WB hybridization in this experiment are purchased from Cell Signaling Company (http://www.cellsignal.com). The fluorescence-labeled antibodies used in flow cytometry are purchased from eBiosciences Company (http://www.ebioscience.com).
UT-7/EPO is a cell line formed from the marrow of a patient suffering from […] after cultured with EPO induction, and it has obvious response to cytokine EPO. The signal for EPO is transmitted via the homodimer of JAK2 and induces the phosphorylation of downstream STAT5, while a JAK inhibitor suppresses the phosphorylation of STAT5 by suppressing the activity of JAK2. The intracellular inhibitory activity of the compounds on JAK2 can be evaluated by detecting the change of the phosphorylation level of STAT5.
(1) Treatment by the compound: the experiment is carried out in a 6-well plate. […]
(2) Cell fixation and fluorescence labeling: the cells are fixed using paraformaldehyde (30 min), and subsequently treated for membrane permeability in chilled methanol (15 min). […]
(3) Detection by flow cytometry: the detection is carried out using Guava® easyCyte flow cytometer according to the instruction. The median fluorescent intensity (MFI) of a sample is detected using an appropriate cell population. On such a basis, the relative signal intensities are calculated for the phosphorylated STATs treated by the compounds at different concentrations by reference to the signal of the negative (with no factor stimulation) and the positive control (with both factor stimulation and solvent control) in the experiment, so that the IC50 of the compound for the inhibitory activity on STATs phosphorylation can be evaluated.

[1] = test system: collagen-induced arthritis (CIA) model of rats; test: Collagen-induced arthritis (CIA) model of rats; format: in vivo; conditions: rat CIA; for swelling degree induced by arthritis in the rats, compared to the solvent group: 40 mg/kg i.g.; for Inhibitory rate for arthritis score % / Inhibitory rate for paw volume % / Inhibitory rate for toe thickness % / Body weight growth rate %: 14 days after administration, Examples 40 mg/kg i.g. twice/day, MTX 5 mg/kg i.p. twice a week; for Body weight growth rate %: solvent = 100.0; for toxicity to the rats judged from body weight: compared to the solvent group
Description: Objective: in this test, arthritis is induced by chicken collagen in Wistar rats. After in vivo administration of the compounds of Example 7 and Example 22, the change of the disease index for arthritis in rats is evaluated to determine the therapeutic effect of the test compounds on rat arthritis.
Experimental animals: 36 female Wistar rats were purchased from the animal experiment center, Sun Yat-Sen University (Guangzhou) with the body weight ranging from 180 to 200 g at the beginning of experiment. Four groups (8 rats in each group) were used as the arthritis model, and another group (4 rats) was used as normal control.
Materials: chicken type II collagen and Freund's complete adjuvant were purchased from Beijing Biolead Science and Technology Development Co., Ltd. Positive control: methotrexat (MTX).
Preparation method: the test compounds were prepared by adding them to freshly prepared 0.2% CMC-Na+0.1% Tween-80 solution in sterile water to a desired concentration and thoroughly mixing through ultrasound.
CIA model: the chicken collagen was fully emulsified in equal volume of freud's complete adjuvant, and subcutaneously injected at the tail root of the rat on day 0 for sensitization (250 μL/rat). Another injection was performed at the tail root on day 7 for supplementary immunization (100 μL/rat). After arthritis occurred (on about day 13), the rats were randomly divided into 4 groups with 8 rats in each group. Administration started on day 14 after the first immunization, and lasted for 14 days. The limbs of a rat were visually inspected, and the severity of arthritis was scored in a range from […]: 0=normal; 1=a slight symptom, with signs, such as red and swollen ankle or wrist; 2=moderate red and swollen ankle or wrist; 3=severe red and swollen paw, including toes; 4=severe swollen joint accompanied with dysfunction; the highest score for each rat was 16. The thickness of toes of posterior limbs and the paw volume were measured at the same time.
Medication: the rats were i.g. administered with the compound of Example 7 at a concentration of 40 mg/kg twice/day; or the rats were i.g. administered with the compound of Example 22 at a concentration of 40 mg/kg twice/day. For the positive control, 5 mg/kg MTX was intraperitoneally injected twice a week. The i.g. administration of solvent was used as the negative control. The data obtained 14 days after administration and before administration were compared.

JAK1, sequence (P23458 whole entry, species assumed): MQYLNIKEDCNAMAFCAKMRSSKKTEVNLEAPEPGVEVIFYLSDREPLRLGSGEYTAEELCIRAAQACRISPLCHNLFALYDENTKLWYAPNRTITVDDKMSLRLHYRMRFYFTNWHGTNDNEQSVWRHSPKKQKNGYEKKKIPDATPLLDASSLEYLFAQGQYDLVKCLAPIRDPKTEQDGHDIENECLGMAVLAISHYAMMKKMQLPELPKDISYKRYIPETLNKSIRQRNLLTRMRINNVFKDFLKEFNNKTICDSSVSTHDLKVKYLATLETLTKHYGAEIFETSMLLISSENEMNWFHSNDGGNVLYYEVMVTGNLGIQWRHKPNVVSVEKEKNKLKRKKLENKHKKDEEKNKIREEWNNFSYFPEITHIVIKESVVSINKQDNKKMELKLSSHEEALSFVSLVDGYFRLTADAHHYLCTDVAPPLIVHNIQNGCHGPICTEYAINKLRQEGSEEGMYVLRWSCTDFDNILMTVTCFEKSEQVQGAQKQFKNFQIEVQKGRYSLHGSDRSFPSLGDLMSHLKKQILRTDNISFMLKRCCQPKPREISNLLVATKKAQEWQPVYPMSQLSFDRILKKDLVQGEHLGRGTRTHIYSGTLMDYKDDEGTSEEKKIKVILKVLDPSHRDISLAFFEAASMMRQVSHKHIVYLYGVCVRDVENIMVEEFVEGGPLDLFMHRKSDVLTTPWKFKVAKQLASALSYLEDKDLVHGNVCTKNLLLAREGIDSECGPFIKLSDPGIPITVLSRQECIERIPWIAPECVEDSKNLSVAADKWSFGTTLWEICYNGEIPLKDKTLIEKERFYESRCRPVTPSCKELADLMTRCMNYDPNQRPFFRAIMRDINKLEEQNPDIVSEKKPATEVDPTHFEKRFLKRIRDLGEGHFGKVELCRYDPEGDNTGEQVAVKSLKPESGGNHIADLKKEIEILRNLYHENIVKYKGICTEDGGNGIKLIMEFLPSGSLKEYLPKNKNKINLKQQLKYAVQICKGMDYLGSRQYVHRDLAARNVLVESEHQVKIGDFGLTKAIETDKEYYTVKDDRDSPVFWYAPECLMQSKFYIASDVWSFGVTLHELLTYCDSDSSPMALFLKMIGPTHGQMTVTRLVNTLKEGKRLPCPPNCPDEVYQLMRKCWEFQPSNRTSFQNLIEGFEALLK

| SMILES | IC50 (JAK1) [nM] | IC50 (EPO/JAK2/STAT5a (UT-7)) [nM] | swelling degree induced by arthritis in the rats, compared to the solvent group [1] | Inhibitory rate for arthritis score % [1] [%] | Inhibitory rate for paw volume % [1] [%] | Inhibitory rate for toe thickness % [1] [%] | Body weight growth rate % [1] [%] | toxicity to the rats judged from body weight [1] |
| --- | --- | --- | --- | --- | --- | --- | --- | --- |
| C=CC(=O)N(C)c1cc(Nc2ncc(Cl)c(NCCCNC(=O)c3ccc(C#N)cc3)n2)ccc1F [Example 7, N-(3-(5-chloro-2-(4-fluoro-3-(N-methylacrylamido)phenylamino)pyrimidinyl-4-amino)propyl)-4-cyano-benzamide] | 105 | > 3000 | significantly inhibited | 75.0 | 63.6 | 74.3 | 102.2 | no significant toxicity |
| C=CC(=O)N(C)c1cc(Nc2ncc(Cl)c(NCCCNC(=O)c3ccc(C(F)(F)F)cc3)n2)ccc1F [Example 22, N-(3-(5-chloro-2-(4-fluoro-3-(N-methylacrylamido)phenylamino)pyrimidinyl-4-amino)propyl)-4-trifluoromethylbenzamide] | 279 | > 3000 | certain inhibitory effect | 25.5 | 24.6 | 13.9 | 102.0 | no significant toxicity |
| C=CC(=O)N(C)c1cc(Nc2ncc(Cl)c(NCCCNC(=O)c3ccc(F)cc3)n2)ccc1F [Example 23, N-(3-(5-chloro-2-(4-fluoro-3-(N-methylacrylamido)phenylamino)pyrimidinyl-4-amino)propyl)-4-fluorobenzamide] | 173 | > 3000 |  |  |  |  |  |  |

From patent publication US10011571B2, “Preparation method for aromatic heterocyclic compound used as selective JAK3 and/or JAK1 kinase inhibitor and application of aromatic heterocyclic compound” (SHENZHEN CHIPSCREEN BIOSCIENCES, LTD., priority 2014, dated 2018)
